For one experiment, the target named is T1, CDK2/cyclinE (Homo sapiens, UniProt P24941).
T1 construct: purchased Merck Millipore
As to the kind of experiment: Inhibition of CDK enzyme activity (ADP-Glo kinase assay). The class given is biochemical. To be noted: 10 uM ATP, histone H1 substrate. Put shortly: (§1)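 Kinase reactions in 50 mM Tris-HCl pH 7.5 with MgCl2, EGTA, EDTA and DTT, at 10 µM ATP. CDK2/cyclinE and CDK5/p25 were used at 10 nM and CDK6/cyclinD3 at 50 nM with 0.125 mg/ml histone H1; CDK4/cyclinD1 was used at 20 nM with 0.125 mg/ml Rb protein. After 60 min at 30 °C, ADP was read by ADP-Glo luminescence and IC50 taken from % inhibition versus no-compound control.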

The target in another experiment is T2, CDK5/p25 (Homo sapiens, UniProt Q00535).
T2 construct: purchased Merck Millipore
T2 sequence (Q00535 whole entry): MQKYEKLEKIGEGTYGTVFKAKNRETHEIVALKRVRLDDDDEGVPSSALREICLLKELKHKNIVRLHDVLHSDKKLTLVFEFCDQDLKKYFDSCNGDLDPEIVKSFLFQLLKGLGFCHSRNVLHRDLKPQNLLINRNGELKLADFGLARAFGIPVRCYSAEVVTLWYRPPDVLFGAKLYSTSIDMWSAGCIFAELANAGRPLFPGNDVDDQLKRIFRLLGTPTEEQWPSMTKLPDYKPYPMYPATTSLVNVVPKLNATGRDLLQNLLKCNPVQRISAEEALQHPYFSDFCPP
T2 sequence (Q15078 99-307 partner limits assumed): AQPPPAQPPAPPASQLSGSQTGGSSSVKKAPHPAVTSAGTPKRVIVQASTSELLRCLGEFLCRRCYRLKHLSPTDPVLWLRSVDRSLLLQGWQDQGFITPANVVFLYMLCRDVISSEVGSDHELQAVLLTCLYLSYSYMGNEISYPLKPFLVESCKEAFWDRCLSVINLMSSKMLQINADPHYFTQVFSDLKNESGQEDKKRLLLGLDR
The experiment is described as above. The class given is biochemical. Conditions: 10 uM ATP, histone H1 substrate. Put shortly:
as §1

A further experiment deals with T3, CDK6/cyclinD3 (Homo sapiens, UniProt Q00534).
T3 construct: purchased Merck Millipore
T3 sequence (Q00534 whole entry): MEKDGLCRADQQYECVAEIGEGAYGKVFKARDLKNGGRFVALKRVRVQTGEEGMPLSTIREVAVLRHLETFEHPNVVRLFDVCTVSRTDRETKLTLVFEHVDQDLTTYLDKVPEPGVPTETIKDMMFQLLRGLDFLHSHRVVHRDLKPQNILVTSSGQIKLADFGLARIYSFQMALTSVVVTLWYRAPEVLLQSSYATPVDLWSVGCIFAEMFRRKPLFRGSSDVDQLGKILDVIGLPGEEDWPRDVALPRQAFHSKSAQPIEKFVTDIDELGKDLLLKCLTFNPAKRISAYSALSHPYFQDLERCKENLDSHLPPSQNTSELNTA
T3 sequence (P30281 whole entry partner): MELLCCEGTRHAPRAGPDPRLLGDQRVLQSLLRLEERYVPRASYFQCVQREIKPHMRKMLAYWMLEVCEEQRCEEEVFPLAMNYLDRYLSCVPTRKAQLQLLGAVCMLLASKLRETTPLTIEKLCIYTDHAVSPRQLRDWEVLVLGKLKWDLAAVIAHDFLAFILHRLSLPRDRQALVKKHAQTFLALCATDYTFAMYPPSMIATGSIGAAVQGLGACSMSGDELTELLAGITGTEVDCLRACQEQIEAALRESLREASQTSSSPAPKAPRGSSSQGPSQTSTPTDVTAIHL
The experiment is described as above. It counts as biochemical. Conditions: 10 uM ATP, histone H1 substrate; read-out: IC50 CDK6/cyclinD. Put shortly:
as §1

The next experiment has as its target T4, CDK4/cyclinD1 (Homo sapiens, UniProt P11802).
T4 construct: purchased Signalchem (US)
The description is as above. It counts as biochemical. Conditions: 10 uM ATP, Rb protein substrate; read-out: IC50 CDK4/cyclinD. Put shortly:
as §1

A further experiment addresses T5, CDK1/cyclinB (Homo sapiens, UniProt P06493).
T5 construct: purchased Merck Millipore
The experiment is described as above. The class given is biochemical. Conditions: 10 uM ATP, histone H1 substrate.

Another experiment concerns T98G. As to the kind of experiment: Inhibition of cancer cell proliferation (MTT). It counts as cell-based, human. Put shortly: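 Plate 3000 cells/well and let them adhere for 16 h. Add compound (0.004, 0.013, 0.04, 0.12, 0.37, 1.1, 3.3, 10 uM; 0.08% DMSO) and culture for 72 h. Add MTT for 2 h, dissolve formazan in DMSO, read at 535 nm, and fit GI50.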
The next experiment deals with A549. As to the kind of experiment: Inhibition of cancer cell proliferation (MTT). The class given is cell-based, human. To be noted: Homo sapiens, A549, 72 h. The gist of the method: (§2)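 Absorbance at 535 nm of DMSO-dissolved formazan (2 h MTT) gives viability versus 0.08% DMSO-treated cells, and GI50 is derived from eight concentrations between 0.004 and 10 uM. Exposure lasts 72 h at 37 °C, 5% CO2, using 3000 cells/well in 10% FBS medium ([…] for NCI-H23, otherwise DMEM).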

The subject of a further experiment is NCI-H23. As to the kind of experiment: Inhibition of cancer cell proliferation (MTT). The class given is cell-based, human. Conditions: Homo sapiens, NCI-H23, 72 h. The gist of the method: as §2

Molecules are shown by their SMILES. Counter-ions that a name gives are not always drawn. Where only a bound is given, the exact number is not on record here.

T4 sequence (P11802 whole entry): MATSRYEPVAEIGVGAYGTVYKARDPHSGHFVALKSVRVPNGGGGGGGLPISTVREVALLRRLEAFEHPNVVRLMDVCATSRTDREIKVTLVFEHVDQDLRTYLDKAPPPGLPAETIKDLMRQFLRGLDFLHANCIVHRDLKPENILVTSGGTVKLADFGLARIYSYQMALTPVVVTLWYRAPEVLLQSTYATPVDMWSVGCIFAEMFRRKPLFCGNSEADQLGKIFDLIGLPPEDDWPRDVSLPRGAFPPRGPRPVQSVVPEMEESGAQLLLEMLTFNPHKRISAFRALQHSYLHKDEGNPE
T4 sequence (P24385 whole entry partner): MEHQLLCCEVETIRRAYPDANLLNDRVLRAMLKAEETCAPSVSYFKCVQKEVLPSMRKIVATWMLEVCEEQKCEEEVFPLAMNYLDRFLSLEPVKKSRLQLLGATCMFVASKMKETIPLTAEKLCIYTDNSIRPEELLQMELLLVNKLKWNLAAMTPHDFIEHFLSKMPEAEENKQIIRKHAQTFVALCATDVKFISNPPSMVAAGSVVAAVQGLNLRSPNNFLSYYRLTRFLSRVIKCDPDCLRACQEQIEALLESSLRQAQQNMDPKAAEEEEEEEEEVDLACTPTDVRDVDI
T5 sequence (P06493 whole entry): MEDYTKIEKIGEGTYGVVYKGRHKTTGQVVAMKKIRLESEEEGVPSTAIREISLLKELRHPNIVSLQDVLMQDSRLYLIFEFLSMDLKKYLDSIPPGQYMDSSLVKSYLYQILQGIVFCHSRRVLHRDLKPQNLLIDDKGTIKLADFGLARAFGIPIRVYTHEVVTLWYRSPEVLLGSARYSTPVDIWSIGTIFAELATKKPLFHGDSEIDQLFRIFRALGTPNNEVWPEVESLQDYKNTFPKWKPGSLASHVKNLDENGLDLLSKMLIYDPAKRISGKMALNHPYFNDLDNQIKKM
T5 sequence (P14635 whole entry partner): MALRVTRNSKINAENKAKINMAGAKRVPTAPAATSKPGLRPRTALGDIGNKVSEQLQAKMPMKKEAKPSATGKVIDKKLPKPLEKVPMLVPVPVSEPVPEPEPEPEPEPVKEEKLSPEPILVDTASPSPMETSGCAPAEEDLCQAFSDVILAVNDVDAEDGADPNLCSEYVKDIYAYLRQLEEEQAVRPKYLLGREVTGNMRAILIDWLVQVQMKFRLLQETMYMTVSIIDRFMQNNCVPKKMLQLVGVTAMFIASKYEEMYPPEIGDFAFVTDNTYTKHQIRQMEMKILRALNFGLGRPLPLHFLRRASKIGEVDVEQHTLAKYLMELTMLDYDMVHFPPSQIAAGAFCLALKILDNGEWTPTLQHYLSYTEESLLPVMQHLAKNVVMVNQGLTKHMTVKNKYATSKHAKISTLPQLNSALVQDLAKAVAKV

Regarding `Nc1nccc(-c2ccc(O)c(-c3ccnc(N)n3)n2)n1` [Example 1, 2,6-bis(2-aminopyrimidin-4-yl)pyridin-3-ol], the IC50 is 1.5 nM on CDK2/cyclinE; 2.4 nM at CDK5/p25; over 200 nM on CDK6/cyclinD3; 855 nM at CDK4/cyclinD1; 1.5 nM on CDK1/cyclinB.

As to `Nc1nccc(-c2nc(-c3ccnc(N)c3F)ccc2O)n1` [Example 8], the IC50 was found to be 2.1 nM at CDK2/cyclinE; 0.22 nM on CDK5/p25; 47 nM at CDK6/cyclinD3; 108 nM on CDK4/cyclinD1; 2.1 nM at CDK1/cyclinB. Further, the GI50 – broadly, the concentration that inhibits growth by half – in the experiment with T98G (72 hrs) is 190 nM.

As to `Nc1cc(-c2ccc(O)c(-c3ccnc(N)n3)n2)ccn1` [Example 10, 2′-amino-6-(2-aminopyrimidin-4-yl)-[2,4′-bipyridin]-5-ol], the IC50 on CDK2/cyclinE was 2.6 nM; against CDK5/p25 it was 1.2 nM; at CDK6/cyclinD3, over 200 nM; on CDK4/cyclinD1, 203 nM; against CDK1/cyclinB, 3.6 nM.

For the compound `Nc1nccc(-c2ccc(O)c(-c3ccnc(N)n3)n2)n1` [Example 61, 2,6-bis(2-aminopyrimidin-4-yl)pyridin-3-ol 3hydrochloride], the IC50 on CDK2/cyclinE was found to be 0.5 nM; at CDK5/p25 it was 0.9 nM; at CDK1/cyclinB, 0.4 nM. The concentration for 50% growth inhibition (GI50) in the experiment with A549 worked out at 210 nM; in the experiment on NCI-H23, 430 nM.

With `Cc1cc(-c2nc(-c3ccnc(N)c3F)ccc2O)nc(N)n1` [Example 71, 2′-amino-6-(2-amino-6-methylpyrimidin-4-yl)-3′-fluoro-[2,4′-bipyridin]-5-ol 3hydrochloride], the IC50 was 0.3 nM at CDK2/cyclinE; 0.3 nM at CDK5/p25; 29.8 nM on CDK6/cyclinD3; 125 nM at CDK4/cyclinD1; 0.2 nM on CDK1/cyclinB. The concentration for 50% growth inhibition (GI50) in the experiment on T98G (Homo sapiens, T98G, 72 h) is 60 nM; in the experiment on A549, 20 nM; with NCI-H23, 40 nM.
